Laboratory results: article PMC6433232, “Targeting mitochondria in cancer therapy could provide a basis for the selective anti-cancer activity” (PLoS ONE, 2019)

test system: pancreatic cancer MIA PaCa-2 cells; assay: cells; conditions: Homo sapiens, MIA PaCa-2, read-out: EC50, μM MIA PaCa-2
Method: Fig 1 A, Structure of NSC130362. B, Dose response curve of NSC130362 in MIA PaCa-2 cells. Cells were pre-incubated with NSC130362 for 2 h followed by addition of ATO (5 μM) and incubation for an additional 24 h. At the end of the treatment, the ratio of dead cells was determined by a CellTiterGlo reagent.

Compared with `O=C1C=C(SCCO)C(=O)c2ccccc21` [compound 60], `CCCCC(=O)NC1=C(Cl)C(=O)c2ccccc2C1=O` [compound 32] is 1.6-fold higher in EC50: 6.2 µM for the first, 10.2 µM for the second.

First: CCCCOCCCNC1=C(Cl)C(=O)c2ccccc2C1=O [compound 26]
Second: CC(C)(C)NC1=C(Cl)C(=O)c2ccccc2C1=O [compound 13]
The EC50 of the first is 3.7-fold higher: 26.6 µM for the first, 7.2 µM for the second.

`CC1CN1C1=C(Cl)C(=O)c2ccccc2C1=O` (centres unmarked) [compound 16] and `COC1=C(N2CC2)C(=O)c2ccccc2C1=O` [compound 54] are within 1.5-fold of each other in EC50: 6.9 µM for the first, 7.5 µM for the second.

Going from `O=C1C(Cl)=C(Nc2nccs2)C(=O)c2ccccc21` [compound 38] to `O=C1C(Cl)=C(Nc2ccccc2)C(=O)c2ccccc21` [compound 39], the EC50 falls from over 90 µM to 3.9 µM. The second is the more potent here.

First: CCNC1=CC(=O)c2ncccc2C1=O [compound 66]
Second: O=C1C(Cl)=C(NCCc2ccccc2)C(=O)c2ccccc21 [compound 36]
The EC50 of the first is 3.6-fold lower: 4.5 µM for the first, 16.2 µM for the second.

same assay, conditions: Homo sapiens, MIA PaCa-2, read-out: LC50 MIA PaCa-2

Compared with `O=C1C=C(SCCO)C(=O)c2ccccc21` [compound 60], `CCCCC(=O)NC1=C(Cl)C(=O)c2ccccc2C1=O` [compound 32] is 1.6-fold higher in CC50: 6.2 µM for the first, 10.2 µM for the second.

Going from `CCCCOCCCNC1=C(Cl)C(=O)c2ccccc2C1=O` [compound 26] to `CC(C)(C)NC1=C(Cl)C(=O)c2ccccc2C1=O` [compound 13], the CC50 falls from 26.6 µM to 7.2 µM (3.7-fold).

`CC1CN1C1=C(Cl)C(=O)c2ccccc2C1=O` (centres unmarked) [compound 16] and `COC1=C(N2CC2)C(=O)c2ccccc2C1=O` [compound 54] are within 1.5-fold of each other in CC50: 6.9 µM for the first, 7.5 µM for the second.

`CCNC1=CC(=O)c2ncccc2C1=O` [compound 66] and `O=C1C(Cl)=C(Nc2ccccc2)C(=O)c2ccccc21` [compound 39] are within 1.5-fold of each other in CC50: 4.5 µM for the first, 3.9 µM for the second.

`O=C1C(Cl)=C(NCCc2ccccc2)C(=O)c2ccccc21` [compound 36] gave a CC50 of 16.2 µM.

same assay, conditions: versus compound 1

Compound `O=C1C(Cl)=C(Nc2ccccc2)C(=O)c2ccccc21` [compound 39] has a reduced anti-cancer activity of 8 fold.

same assay, conditions: versus compound 49

In the case of `CCNC1=CC(=O)c2ncccc2C1=O` [compound 66], the improved anti-cancer activity is reported as “more than 30 fold”.

test system: hepatocytes; assay: Hydrogen peroxide cell-based assay (ROS induction), hepatocytes; set-up: species or system Human; conditions: 30 μM; hydrogen peroxide level relative to DMSO-treated cells (100%)
Method: Cells were incubated for 2 h with either compounds (30 μM) or DMSO in a 96-well plate. After the treatment, 80 μl of cell culture medium was collected and the level of hydrogen peroxide was determined using a Hydrogen Peroxide Cell-Based Assay kit (Cayman).
Cells were incubated with the compounds for 4 h and the level of ROS induction was measured by a hydrogen peroxide cell-based assay kit. Compounds were assayed at a fixed concentration of 30 μM and the measured level of hydrogen peroxide was expressed as percentage in relation to DMSO-treated cells (100%). […] This distinction was more evident for compounds with the highest selective cytotoxicity index. […] We conclude that the selective induction of ROS in cancer cells is required but not sufficient factor for the selective anti-tumor activity.

First: O=C1C=C(SCCO)C(=O)c2ccccc21 [compound 60]
Second: CCCCC(=O)NC1=C(Cl)C(=O)c2ccccc2C1=O [compound 32]
The “ROS increase, % Hepatocytes” value of the first is higher: 386% for the first, 249% for the second.

Compared with `CCCCOCCCNC1=C(Cl)C(=O)c2ccccc2C1=O` [compound 26], `CC(C)(C)NC1=C(Cl)C(=O)c2ccccc2C1=O` [compound 13] is lower in “ROS increase, % Hepatocytes” value: 191% for the first, 123% for the second.

Going from `O=C1C(Cl)=C(Nc2nccs2)C(=O)c2ccccc21` [compound 38] to `O=C1C(Cl)=C(Nc2ccccc2)C(=O)c2ccccc21` [compound 39], the “ROS increase, % Hepatocytes” value rises from 100% to 174%.

First: CCNC1=CC(=O)c2ncccc2C1=O [compound 66]
Second: O=C1C(Cl)=C(NCCc2ccccc2)C(=O)c2ccccc21 [compound 36]
The “ROS increase, % Hepatocytes” value of the first is lower: 173% for the first, 178% for the second.

target: T1, human GSR enzyme (recombinant GSR) (Homo sapiens, UniProt P00390); assay: Glutathione reductase (GSR) activity assay; assay type: biochemical; conditions: 2 h at 25°C, read-out: GSR, enzyme residual activity as compared to DMSO-treated sample
T1 construct: made in house; host or cells: E. coli BL21(DE3)
T1 sequence (P00390 44-522): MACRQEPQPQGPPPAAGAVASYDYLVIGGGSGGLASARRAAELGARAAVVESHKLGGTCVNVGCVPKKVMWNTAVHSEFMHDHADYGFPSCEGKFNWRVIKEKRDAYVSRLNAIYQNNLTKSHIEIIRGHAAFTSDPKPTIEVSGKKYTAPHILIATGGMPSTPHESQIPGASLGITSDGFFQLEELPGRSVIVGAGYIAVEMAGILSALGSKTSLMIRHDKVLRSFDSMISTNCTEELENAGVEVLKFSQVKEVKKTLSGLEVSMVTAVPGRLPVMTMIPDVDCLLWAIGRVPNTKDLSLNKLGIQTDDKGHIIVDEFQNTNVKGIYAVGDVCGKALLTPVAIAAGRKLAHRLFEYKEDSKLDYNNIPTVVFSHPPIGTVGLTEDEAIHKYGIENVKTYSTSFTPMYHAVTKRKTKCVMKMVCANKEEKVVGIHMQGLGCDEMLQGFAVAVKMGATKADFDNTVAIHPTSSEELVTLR
Method: Recombinant GSR (0.5 u/well) in a 96-well plate was incubated in the GSR assay buffer (50 mM potassium phosphate buffer, pH 7.5 supplemented with 1 mM EDTA), 100 μl with and without compound (30 μM) for 2 h at 25°C. At the end of incubation, 100 μl of solution containing NADPH (0.087 mM), oxidized glutathione (GSSG) (0.95 mM) and 1 μl of the reagent that detects ratio of GSSG to reduced glutathione (GSH) (Abcam) were added and the mixture was incubated for an additional 1 h at 25°C. GSR activity was measured by using 490-nm excitation and monitoring fluorescence at 520 nm with a fluorescence plate reader. One unit of GSR activity was defined as the amount of enzyme required to produce 1 μM of GSH in a total reaction volume of 200 μl in 1 minute in the GSR assay buffer containing NADPH (0.087 mM), GSSG (0.95 mM) and 1 μl of GSH/GSSG ratio detection reagent (Abcam).
Next, we evaluated the inhibitory activity of the selected compounds against human GSR enzyme using recombinant GSR and Abcam GSH/GSSG ratio detection reagent (Table 1). Briefly, GSR activity was measured by following oxidized glutathione (GSSG) reduction in the presence of NADPH and expressed as percentage of residual activity with respect to DMSO-treated enzyme. The residual activity of GSR for both the non-toxic and toxic compounds was quite heterogeneous, ranging from 100% (compounds 38) to 3% (compound 32). […] We thus conclude that GSR inhibitory activity alone cannot be used to predict the selective cytotoxicity index.

First: O=C1C=C(SCCO)C(=O)c2ccccc21 [compound 60]
Second: CCCCC(=O)NC1=C(Cl)C(=O)c2ccccc2C1=O [compound 32]
The remaining activity at 30 µM of the first is higher: 38% for the first, 1% for the second.

Going from `CCCCOCCCNC1=C(Cl)C(=O)c2ccccc2C1=O` [compound 26] to `CC(C)(C)NC1=C(Cl)C(=O)c2ccccc2C1=O` [compound 13], the remaining activity at 30 µM falls from 66% to 45%.

Compared with `CC1CN1C1=C(Cl)C(=O)c2ccccc2C1=O` (centres unmarked) [compound 16], `COC1=C(N2CC2)C(=O)c2ccccc2C1=O` [compound 54] is lower in remaining activity at 30 µM: 75% for the first, 54% for the second.

Going from `O=C1C(Cl)=C(Nc2nccs2)C(=O)c2ccccc21` [compound 38] to `O=C1C(Cl)=C(Nc2ccccc2)C(=O)c2ccccc21` [compound 39], the remaining activity at 30 µM rises from 90% to 92%.

First: CCNC1=CC(=O)c2ncccc2C1=O [compound 66]
Second: O=C1C(Cl)=C(NCCc2ccccc2)C(=O)c2ccccc21 [compound 36]
The remaining activity at 30 µM of the first is higher: 59% for the first, 42% for the second.

same assay, conditions: read-out: GSR-inhibiting activity

With `CCCCC(=O)NC1=C(Cl)C(=O)c2ccccc2C1=O` [compound 32] the inhibition at 30 µM was 99%.

test system: not listed separately; assay: Distribution coefficient LogD; assay type: physicochemical; conditions: octanol/water, pH 7.4; read-out: LogD, pH = 7.4
From the text: We conclude that the analysis of the octanol-water partitioning is not sufficient to establish a link between degree of lipophilicity and biological activities of the selected compounds.

Compared with `O=C1C=C(SCCO)C(=O)c2ccccc21` [compound 60], `CCCCC(=O)NC1=C(Cl)C(=O)c2ccccc2C1=O` [compound 32] is lower in logD: 2.99 for the first, 2.79 for the second.

Going from `CCCCOCCCNC1=C(Cl)C(=O)c2ccccc2C1=O` [compound 26] to `CC(C)(C)NC1=C(Cl)C(=O)c2ccccc2C1=O` [compound 13], the logD rises from 0 to 0.52.

`O=C1C(Cl)=C(Nc2nccs2)C(=O)c2ccccc21` [compound 38] and `O=C1C(Cl)=C(Nc2ccccc2)C(=O)c2ccccc21` [compound 39] are within 0.2 log units of each other in logD: 0.1 for the first, 0.13 for the second.

Compared with `CCNC1=CC(=O)c2ncccc2C1=O` [compound 66], `O=C1C(Cl)=C(NCCc2ccccc2)C(=O)c2ccccc21` [compound 36] is lower in logD: 2.87 for the first, 0 for the second.

same assay, conditions: pH 7.4

Compared with `CC1CN1C1=C(Cl)C(=O)c2ccccc2C1=O` (centres unmarked) [compound 16], `COC1=C(N2CC2)C(=O)c2ccccc2C1=O` [compound 54] is lower in logD: 0.7 for the first, 0.31 for the second.

test system: human primary hepatocytes; assay: not given; conditions: hepatocytes; in words

In the case of `CC1CN1C1=C(Cl)C(=O)c2ccccc2C1=O` (centres unmarked) [compound 16], the “toxicity against normal cells” value is reported as “completely non-toxic against normal cells”.

same assay, conditions: read-out: EC50, μM Hepatocytes ATO; in the presence of ATO (5 μM); SD does not exceed 10%

Going from `O=C1C=C(SCCO)C(=O)c2ccccc21` [compound 60] to `CCNC1=CC(=O)c2ncccc2C1=O` [compound 66], the EC50 rises from 1.7 µM to over 90 µM. The first is the more potent here.
